# Data taken from US20140128357A1, “METHODS OF PRODUCING AND USING BRASSINOSTEROIDS TO PROMOTE GROWTH, REPAIR AND MAINTENANCE OF SKELETAL MUSCLE AND SKIN” (Rutgers University, priority 2010, published 2014).
# pIC50: −log10 of the molar value. Where two headings read alike, the source gives them in different places.
# Experiments:
# L6 rat myotubes [1] = experiment: Protein degradation, release of acid-soluble [3H]-phenylalanine; type: cell-based; details: for decrease in protein degradation vs control levels: 1 μM, 4 h
# [2] = system: AKT (Ser473) phosphorylation in L6 myotubes; experiment: AKT (Ser473) phosphorylation, Western blot; type: cell-based, rat; details: for activation of AKT: after 1 h
# Procedure: In some aspects, Western blot analyses were carried out. Fully differentiated L6 myotubes were cultured as described above, and whole cell extracts were prepared in ice-cold RIPA buffer supplemented with 10 mM sodium fluoride, 2 mM sodium orthovanadate, 1 mM PMSF, and protease inhibitor cocktail (Sigma) and centrifuged at 12,000 g for 20 min at 4° C. Equal amounts of protein (50 μg) from the supernatants were separated on 10% SDS polyacrylamide gels and blotted onto the nitrocellulose membrane. Western blot detection was carried out with monoclonal phospho-AKT (Ser473) antibodies according to the manufacturer's instructions (Cell Signaling Technology, Danvers, Mass.). After being washed, the blots were incubated with an anti-rabbit peroxidase-labeled secondary antibody and visualized using ECL Western Blotting Detection Reagent (GE Healthcare, Piscataway, N.J.). After being stripped, the same blots were probed with total AKT antibodies to serve as loading controls.
# [3] = Body composition and blood biochemistry, rats on high-protein diet, 24 d oral HB (Protocol 2); type: in vivo, rat; details: for Bone mineral content / Fat mass / Lean mass: DEXA
# Procedure: Six-week-old male Wistar rats (180-220 g, Charles River Laboratories, MA) were housed in individual chambers in a room maintained at a constant room temperature with 12 h light-dark cycle. Animals had free access to food and water. Animals were allowed to adapt to new conditions for 7 d and handling the animals was carried out daily during this time to reduce the stress of physical manipulation. Animals were randomized into groups according to bodyweight 1 d prior to dosing.
# Protocol 2: Three groups of Wistar rats (n=8), fed a high-protein diet containing 39.4% protein, 10.0% fat, 4.3% fiber, and 37.0% carbohydrates, resulting in 3.93 kcal/g energy value (#5779 diet, Testdiet/Purina, Richmond, Ind.), were gavaged daily for 24 d with 1 ml of vehicle (5% DMSO in corn oil), 20 or 60 mg/kg HB. All procedures and measurements followed protocol 1.
# Blood samples were taken from overnight-fasted animals by heart puncture, collected in EDTA-coated tubes, centrifuged 1,500 g for 20 min, and separated plasma was stored at −80° C. until analysis. Glucose was measured in blood samples using a Lifescan glucometer (Johnson and Johnson, New Brunswick, N.J.). […] Plasma triglycerides and total cholesterol were measured by enzymatic colorimetric assays (Wako Diagnostics, Richmond, Va.). Total testosterone in plasma samples was quantified by an ELISA assay (DRG Diagnostics, Marburg, Germany).
# L6 rat myotubes [4] = experiment: Protein degradation, release of acid-soluble [3H]-phenylalanine; type: cell-based; details: 10 μM; for Protein degradation (% decrease over control): 4 h
# Procedure: In some aspects, cell culture experiments were carried out. Rat L6 skeletal muscle cell line CRL-1458 was obtained from ATCC (Manassas, Va.). Myoblasts were routinely maintained in Dulbecco's modified Eagle's medium (DMEM) containing 10% FBS and 0.1% penicillin-streptomycin at 37° C. and 5% CO2. Cells were subcultured into 24-well plates for protein synthesis, degradation, and cell viability studies and into 6-well plates for Western blot analyses (Greiner Bio One, Monroe, N.C.). Once cells reached 90% confluence, differentiation was induced by lowering the serum concentration to 2%, and medium was changed every 2 days. […] NIH 3T3 murine embryonic fibroblast cell line (ATCC #CCL-92) was maintained in DMEM and 10% FBS at 37° C. in 5% CO2, and passaged every 3-4 days.
# In various aspects, protein degradation is measured to determine the effect of brassinosteroid on a particular protein. All known methods for measuring protein degradation are included in the methods of the disclosure. The effect of brassinosteroids on protein degradation was investigated in fully differentiated myotubes as described by Fawcett et al. (Arch. Biochem. Biophys. 385:357-363, 2001) with slight modifications. Fully differentiated myotubes were incubated for 16 h to allow labeling of cellular proteins with 1.5 μCi/mL [^3H]-phenylalanine. […] The incubation was stopped by placing the cells on ice, and protein in the medium was precipitated with 5% trichloroacetic acid. Specific radioactivity of protein-free phenylalanine was quantified using liquid scintillation counter LS 6500 (Beckman Coulter, Fullerton, Calif.) and normalized to mg of total cell protein determined by BCA protein assay (Pierce Biotechnology, Rockford, Ill.).
# The bioactivity of HB and its analogs (as shown in Table 3) were also evaluated by measuring decreases in protein degradation in the L6 rat skeletal muscle cells in vitro. Cells were labeled overnight with [^3H]-phenylalanine and subsequently treated for 4 h in triplicate with vehicle (0.1% ethanol) or test compound (10 μM), and protein degradation was assessed as release of acid-soluble [^3H]-phenylalanine into the media normalized by total protein (Table 3).
# [5] = system: NIH 3T3 murine fibroblast cell line; experiment: Cytotoxicity, MTT assay in 3T3 fibroblasts; type: cell-based, mouse
# Procedure: FIG. 9. Cell survival curves as measured by MTT assay for brassinosteroids 1-9 against the murine fibroblast cell line NIH-3T3. Cells were incubated with various concentrations of brassinosteroids (0.3-30 μM) for 24 h at 37° C. The mean absorbance of the control cells represented 100% cell proliferation, and the mean absorbance of treated cells was related to control values to determine sensitivity. Error bars represent standard error (n=6) from mean cell proliferation as determined by repeated experiments.
# In various aspects, cell viability is measured and the effects of doses of compound and test reagents are tested in cell lines. In some aspects, cell viability was measured by the MTT (3-(4,5-Dimethylthiazol-2-yl)-2,5-diphenyltetrazolium bromide) assay in triplicate (Mosmann et al., J. Immunol. Methods 65:55-63, 1983) and quantified spectrophotometrically at 550 nm using a microplate reader (Molecular Devices, Sunnyvale, Calif.).
# 3T3 fibroblasts were seeded in a 96-well flat bottom plate at a density of 1×10^4 cells/well. Cell viability was measured by an MTT (3-(4,5-Dimethylthiazol-2-yl)-2,5-diphenyltetrazolium bromide) assay in triplicate (0.3-30 μM of test substance for […]) essentially as described by Mosmann (J. Immunol. Methods 65, 55-63, 1983) and quantified spectrophotometrically at 550 nm using a microplate reader (Molecular Devices, Sunnyvale, Calif.). […] For cell proliferation studies, cells were treated in triplicate with 0.1-10 μM of test substance for 24 h and assayed using a BrdU (5-bromo-2′-deoxyuridine) kit from Amersham (Uppsala, Sweden).
smiles,measurement,setting,value
"CC[C@@H](C(C)C)[C@H](O)[C@@H](O)[C@@H](C)[C@H]1CC[C@H]2[C@@H]3COC(=O)[C@H]4C[C@H](O)[C@H](O)C[C@]4(C)[C@H]3CC[C@]12C [Compound 1, (22S,23S,24S)-2α,3α,22,23-tetrahydroxy-24 ethyl-β-homo-7-oxo-5α-cholestane-6-one]",decrease in protein degradation vs control levels,L6 rat myotubes [1],8.2±0.6%
same,time at which suppression of protein degradation reached a plateau,"L6 rat myotubes [1]; 3 μM HB, 1-4 h study",3 h
same,time to AKT phosphorylation,[2],30 min
same,stimulation of Ser473 phosphorylation of AKT,"[2]; 3 μM, 1 h",up to 3 fold
same,activation of AKT,[2],significant activation of AKT
same,Body weight,[3]; 20 mg/kg oral daily 24 d,337.6 ± 6.4 g
same,Body weight gain,[3]; 20 mg/kg oral daily 24 d,98.3 ± 5.2 g
same,Gastrocnemius muscle,[3]; 20 mg/kg oral daily 24 d,1.98 ± 0.01 g
same,Bone mineral content,[3]; 20 mg/kg oral daily 24 d,7.5 ± 0.2 g
same,Fat mass,[3]; 20 mg/kg oral daily 24 d,68.6 ± 3.1 g
same,Lean mass,[3]; 20 mg/kg oral daily 24 d,246.8 ± 7.4 g
same,Body weight,[3]; 60 mg/kg oral daily 24 d,335.8 ± 5.1 g
same,Body weight gain,[3]; 60 mg/kg oral daily 24 d,91.1 ± 3.2 g
same,Gastrocnemius muscle,[3]; 60 mg/kg oral daily 24 d,2.17 ± 0.03 g
same,Bone mineral content,[3]; 60 mg/kg oral daily 24 d,7.4 ± 0.1 g
same,Fat mass,[3]; 60 mg/kg oral daily 24 d,61.2 ± 3.8 g
same,Lean mass,[3]; 60 mg/kg oral daily 24 d,258.6 ± 2.7 g
same,Protein degradation (% decrease over control),L6 rat myotubes [4],−24.1 ± 5.5 %
same,decrease in protein degradation vs control levels,L6 rat myotubes [4]; 4 h (FIG. 2C),9.5±0.9%
same,pIC50,"[5]; 3T3 mouse fibroblasts, MTT, 0.3-30 μM, read-out: Cell cytotoxicity, IC50",< 4.52
same,cytotoxicity in vitro,[5]; tested up to 30 μM,no cytotoxicity
"CC[C@@H](C(C)C)[C@H](O)[C@@H](O)[C@@H](C)[C@H]1CC[C@H]2[C@@H]3CC(=O)[C@H]4C[C@H](O)[C@H](O)C[C@]4(C)[C@H]3CC[C@]12C [Compound 2, (22S,23S,24S)-2α,3α, 22,23-tetrahydroxy-24-ethyl-5α-cholestan-6-one]",decrease in protein degradation vs control levels,L6 rat myotubes [1],8.7±1.7%
same,concentration at which inhibition of protein degradation reached a plateau,L6 rat myotubes [1]; 4 h dose response,10 µM
same,activation of AKT,[2],significant activation of AKT
same,Protein degradation (% decrease over control),L6 rat myotubes [4],−23.1 ± 4.2 %
"CC[C@@H](C(C)C)[C@H](O)[C@@H](O)[C@@H](C)[C@H]1CC[C@H]2[C@@H]3CC(=O)N[C@H]4C[C@H](O)[C@H](O)C[C@]4(C)[C@H]3CC[C@]12C [Compound 5, (22S,23S,24S)-2α,3α-22,23-tetrahydroxy-24-ethyl-B-homo-6-aza-5α-cholestan-7-one]","effect of structural modification on protein degradation activity, in words",L6 rat myotubes [4],only a minor effect on its biological activity
same,Protein degradation (% decrease over control),L6 rat myotubes [4],−13.6 ± 3.8%
same,pIC50,[5],4.90
same,pIC50,"[5]; 3T3/NIH murine fibroblasts, MTT, 24 h (FIG. 9), read-out: half-maximal inhibitory concentration (IC50), cell proliferation",4.90
